Consider 30 molecules from patent US20230365592A1 (Agios Pharmaceuticals, Inc., priority 2022, published 2023).

What is called AC50 is the concentration giving half of the maximal activity seen.

The first assay has as its target T1, human PAH with the R408W mutation (Homo sapiens, UniProt P00439, R408W).
T1 construct: expressed in transfected cells
T1 sequence (P00439 1-452 R408W): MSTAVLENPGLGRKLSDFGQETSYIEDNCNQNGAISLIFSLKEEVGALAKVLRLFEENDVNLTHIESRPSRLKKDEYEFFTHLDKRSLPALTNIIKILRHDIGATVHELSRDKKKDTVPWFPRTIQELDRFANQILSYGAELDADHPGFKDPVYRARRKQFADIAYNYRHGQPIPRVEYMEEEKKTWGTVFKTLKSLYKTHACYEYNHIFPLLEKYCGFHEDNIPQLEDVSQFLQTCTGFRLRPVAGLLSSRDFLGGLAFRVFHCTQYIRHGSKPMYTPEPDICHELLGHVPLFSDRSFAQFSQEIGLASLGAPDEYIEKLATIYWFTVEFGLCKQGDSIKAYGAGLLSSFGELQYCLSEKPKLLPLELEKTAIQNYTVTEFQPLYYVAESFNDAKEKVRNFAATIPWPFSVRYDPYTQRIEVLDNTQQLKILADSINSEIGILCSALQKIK
The assay can be described thus: Cell Based Phenylalanine Flux Assay.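 Also: after compound treatment, cells received sepiapterin plus isotope-labelled Phenylalanine for 4 hours, then labelled Tyrosine in the medium was quantified, 10-point 2-fold dilution series run in duplicate.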 The conditions noted are these: A375 cells expressing R408W PAH; 24 hrs with compound, then 20 µM sepiapterin and 800 µM 13C9,15N-Phenylalanine for 4 hours; 13C-Tyrosine by LC-MS; average where tested multiple times; read-out: AC50.
In the case of `Cn1cc(-c2ncc(C(=O)N3CCc4[nH]cnc4C3c3cc4ccccn4n3)o2)cn1` (stereo not drawn), the concentration at half-maximal activity (AC50) lay in the range of 1000 to 5000 nM.

For the molecule `Cc1nnc(C(=O)N2CCc3[nH]cnc3C2c2cc3cccc(C)n3n2)o1` (stereo not drawn), the half-maximal activity concentration (AC50) lay in the range of 1000 to 5000 nM.

Consider `CC(C)(C)c1nnc(C(=O)N2CCc3[nH]cnc3C2c2cc3cc(F)ccn3n2)o1` (stereo not drawn), for which the AC50 lay within 1000 to 5000 nM.

`COc1cccn2nc(C3c4nc[nH]c4CCN3C(=O)c3ocnc3C(F)F)cc12` (stereo not drawn): the half-maximal activity concentration (AC50) lay within 1000 to 5000 nM.

With `CC(C)(O)c1cc(C(=O)N2CCc3[nH]cnc3C2c2cc3ccccn3n2)on1` (stereo not drawn), the AC50 is 1000 to 5000 nM.

Regarding `COc1cccn2nc(C3c4nc[nH]c4CCN3C(=O)c3nnc(C)o3)cc12` (stereo not drawn), the AC50 lay in the range of 1000 to 5000 nM.

As for `Cc1ccn2nc(C3c4nc[nH]c4CCN3C(=O)c3nnc(C(C)(C)O)o3)cc2c1` (stereo not drawn), the AC50 was greater than 5000 nM.

Still in this assay, the particulars now being: A375 cells expressing human PAH R408W; 24 hrs compound incubation; 13C-Tyrosine by LC-MS; average where tested multiple times; read-out: AC50.
For `Cc1cccc2cc([C@@H]3c4nc[nH]c4CCN3c3nnc(C(C)(F)F)o3)nn12` [Example 2329, (S)-2-(1,1-difluoroethyl)-5-(4-(7-methylpyrazolo[1,5-a]pyridin-2-yl)-1,4,6,7-tetrahydro-5H-imidazo[4,5-c]pyridin-5-yl)-1,3,4-oxadiazole], the concentration at half-maximal activity (AC50) was 1000 to 5000 nM.

`Fc1cccnc1-c1nnc(N2CCc3[nH]cnc3[C@H]2c2cc3c(F)cccn3n2)o1` [Example 2289, (S)-2-(4-(4-fluoropyrazolo[1,5-a]pyridin-2-yl)-1,4,6,7-tetrahydro-5H-imidazo[4,5-c]pyridin-5-yl)-5-(3-fluoropyridin-2-yl)-1,3,4-oxadiazole]: the half-maximal activity concentration (AC50) is less than 500 nM.

With `O=C(c1nnc(-c2ccccn2)o1)N1CCc2[nH]cnc2[C@@H]1c1cc2ccc(C(F)(F)F)cn2n1` [Example 2415, (R)-(5-(pyridin-2-yl)-1,3,4-oxadiazol-2-yl)(4-(6-(trifluoromethyl)pyrazolo[1,5-a]pyridin-2-yl)-6,7-dihydro-1H-imidazo[4,5-c]pyridin-5(4H)-yl)methanone], the AC50 lay in the range of 1000 to 5000 nM.

`Cc1cccn2nc([C@@H]3c4nc[nH]c4CCN3C(=O)C3CC3)cc12` [Example 2024, (S)-cyclopropyl(4-(4-methylpyrazolo[1,5-a]pyridin-2-yl)-1,4,6,7-tetrahydro-5H-imidazo[4,5-c]pyridin-5-yl)methanone]: the AC50 was less than 500 nM.

On to `CC(C)c1cccn2nc([C@@H]3c4nc[nH]c4CCN3C(=O)c3nnc(-c4cnn(C)c4)o3)cc12` [Example 1886, (S)-(4-(4-isopropylpyrazolo[1,5-a]pyridin-2-yl)-1,4,6,7-tetrahydro-5H-imidazo[4,5-c]pyridin-5-yl)(5-(1-methyl-1H-pyrazol-4-yl)-1,3,4-oxadiazol-2-yl)methanone], for which the AC50 was less than 500 nM.

Turning to `Cc1cccnc1-c1nnc(N2CCc3[nH]cnc3[C@@H]2c2cc3cccc(C)n3n2)o1` [Example 2308, (R)-2-(4-(7-methylpyrazolo[1,5-a]pyridin-2-yl)-1,4,6,7-tetrahydro-5H-imidazo[4,5-c]pyridin-5-yl)-5-(3-methylpyridin-2-yl)-1,3,4-oxadiazole], the AC50 is greater than 5000 nM.

Regarding `Cc1ncccc1-c1nnc(N2CCc3[nH]cnc3[C@H]2c2cc3cccc(C)n3n2)o1` [Example 2332, (S)-2-(4-(7-methylpyrazolo[1,5-a]pyridin-2-yl)-1,4,6,7-tetrahydro-5H-imidazo[4,5-c]pyridin-5-yl)-5-(2-methylpyridin-3-yl)-1,3,4-oxadiazole], the AC50 was in the range of 500 to 1000 nM.

Still in this assay, the particulars now being: A375 cells expressing human R408W PAH; 24 hrs compound incubation; 13C-Tyrosine by LC-MS; average where tested multiple times; read-out: AC50.
As to `Cc1cccc2cc([C@H]3c4nc[nH]c4CCN3C(=O)c3ocnc3C(F)F)nn12` [Example 793, (R)-(4-(difluoromethyl)oxazol-5-yl)(4-(7-methylpyrazolo[1,5-a]pyridin-2-yl)-6,7-dihydro-1H-imidazo[4,5-c]pyridin-5(4H)-yl)methanone], the half-maximal activity concentration (AC50) is 500 to 1000 nM.

As for `O=C(c1nnc(-c2ncccc2F)o1)N1CCc2[nH]cnc2[C@@H]1c1cc2cccc(Cl)n2n1` [Example 983, (R)-(4-(7-chloropyrazolo[1,5-a]pyridin-2-yl)-6,7-dihydro-1H-imidazo[4,5-c]pyridin-5(4H)-yl)(5-(3-fluoropyridin-2-yl)-1,3,4-oxadiazol-2-yl)methanone], the half-maximal activity concentration (AC50) was greater than 5000 nM.

Take `O=C(c1nnc(-c2ccccn2)o1)N1CCc2[nH]cnc2[C@H]1c1cc2c(Cl)cccn2n1` [Example 735, (S)-(4-(4-chloropyrazolo[1,5-a]pyridin-2-yl)-6,7-dihydro-1H-imidazo[4,5-c]pyridin-5(4H)-yl)(5-(pyridin-2-yl)-1,3,4-oxadiazol-2-yl)methanone]: the AC50 is less than 500 nM.

For the molecule `CC(C)(O)c1nc(Cl)c(C(=O)N2CCc3[nH]cnc3[C@@H]2c2cc3c(Cl)cccn3n2)o1` [Example 721, (R)-(4-chloro-2-(2-hydroxypropan-2-yl)oxazol-5-yl)(4-(4-chloropyrazolo[1,5-a]pyridin-2-yl)-6,7-dihydro-1H-imidazo[4,5-c]pyridin-5(4H)-yl)methanone], the concentration at half-maximal activity (AC50) was greater than 5000 nM.

As for `O=C(c1nnc(-c2ncccn2)o1)N1CCc2[nH]cnc2[C@H]1c1cc2c(F)cccn2n1` [Example 1313, (S)-(4-(4-fluoropyrazolo[1,5-a]pyridin-2-yl)-6,7-dihydro-1H-imidazo[4,5-c]pyridin-5(4H)-yl)(5-(pyrimidin-2-yl)-1,3,4-oxadiazol-2-yl)methanone], the AC50 fell in the range of 500 to 1000 nM.

For the molecule `COc1ccc2c(C(=O)N3CCc4[nH]cnc4[C@H]3c3cc4cccc(F)n4n3)cnn2c1` [Example 1720, (S)-(4-(7-fluoropyrazolo[1,5-a]pyridin-2-yl)-6,7-dihydro-1H-imidazo[4,5-c]pyridin-5(4H)-yl)(6-methoxypyrazolo[1,5-a]pyridin-3-yl)methanone], the AC50 was 500 to 1000 nM.

Regarding `O=C(c1nnc(-c2ncccn2)o1)N1CCc2[nH]cnc2[C@@H]1c1cc2c(Cl)cccn2n1` [Example 1410, (R)-(4-(4-chloropyrazolo[1,5-a]pyridin-2-yl)-6,7-dihydro-1H-imidazo[4,5-c]pyridin-5(4H)-yl)(5-(pyrimidin-2-yl)-1,3,4-oxadiazol-2-yl)methanone], the half-maximal activity concentration (AC50) was 1000 to 5000 nM.

`COc1cccn2nc([C@@H]3c4nc[nH]c4CCN3C(=O)c3nnc(-c4ccn(C(F)F)n4)o3)cc12` [Example 1723, (S)-(5-(1-(difluoromethyl)-1H-pyrazol-3-yl)-1,3,4-oxadiazol-2-yl)(4-(4-methoxypyrazolo[1,5-a]pyridin-2-yl)-6,7-dihydro-1H-imidazo[4,5-c]pyridin-5(4H)-yl)methanone]: the AC50 lay in the range of 500 to 1000 nM.

Turning to `CN(C)c1ccc2c(C(=O)N3CCc4[nH]cnc4[C@@H]3c3cc4c(C(F)F)cccn4n3)cnn2c1` [Example 1771, (R)-(4-(4-(difluoromethyl)pyrazolo[1,5-a]pyridin-2-yl)-6,7-dihydro-1H-imidazo[4,5-c]pyridin-5(4H)-yl)(6-(dimethylamino)pyrazolo[1,5-a]pyridin-3-yl)methanone], the AC50 was greater than 5000 nM.

As for `c1cnc(N2CCc3[nH]cnc3[C@@H]2c2cc3ccccn3n2)nc1` [Example 1593, (R)-4-(pyrazolo[1,5-a]pyridin-2-yl)-5-(pyrimidin-2-yl)-4,5,6,7-tetrahydro-1H-imidazo[4,5-c]pyridine], the AC50 lay in the range of 1000 to 5000 nM.

As to `O=C(c1nnc(-c2ccn(C(F)(F)F)n2)o1)N1CCc2[nH]cnc2[C@H]1c1cc2c(C(F)F)cccn2n1` [Example 1480, (S)-(4-(4-(difluoromethyl)pyrazolo[1,5-a]pyridin-2-yl)-6,7-dihydro-1H-imidazo[4,5-c]pyridin-5(4H)-yl)(5-(1-(trifluoromethyl)-1H-pyrazol-3-yl)-1,3,4-oxadiazol-2-yl)methanone], the AC50 is less than 500 nM.

As to `O=C(c1ocnc1C(F)F)N1CCc2[nH]cnc2[C@@H]1c1cc2cccc(Cl)n2n1` [Example 959, (R)-(4-(7-chloropyrazolo[1,5-a]pyridin-2-yl)-6,7-dihydro-1H-imidazo[4,5-c]pyridin-5(4H)-yl)(4-(difluoromethyl)oxazol-5-yl)methanone], the concentration at half-maximal activity (AC50) fell in the range of 1000 to 5000 nM.

Consider `O=C(c1nnc(-c2ccc(F)cc2F)o1)N1CCc2[nH]cnc2[C@H]1c1cc2ccccn2n1` [Example 652, (S)-(5-(2,4-difluorophenyl)-1,3,4-oxadiazol-2-yl)(4-(pyrazolo[1,5-a]pyridin-2-yl)-6,7-dihydro-1H-imidazo[4,5-c]pyridin-5(4H)-yl)methanone], for which the half-maximal activity concentration (AC50) was less than 500 nM.

For the molecule `Cc1cccn2nc([C@@H]3c4nc[nH]c4CCN3C(=O)c3nnc(C4(C)CC4)o3)cc12` [Example 1323, (S)-(5-(1-methylcyclopropyl)-1,3,4-oxadiazol-2-yl)(4-(4-methylpyrazolo[1,5-a]pyridin-2-yl)-6,7-dihydro-1H-imidazo[4,5-c]pyridin-5(4H)-yl)methanone], the half-maximal activity concentration (AC50) is less than 500 nM.

Regarding `O=C(c1ocnc1C1CC1)N1CCc2[nH]cnc2[C@H]1c1cc2ccccn2n1` [Example 618, (S)-(4-cyclopropyloxazol-5-yl)(4-(pyrazolo[1,5-a]pyridin-2-yl)-6,7-dihydro-1H-imidazo[4,5-c]pyridin-5(4H)-yl)methanone], the half-maximal activity concentration (AC50) was less than 500 nM.

As to `COCCc1ccc2c(C(=O)N3CCc4[nH]cnc4[C@H]3c3cc4c(C(F)(F)F)cccn4n3)cnn2c1` [Example 1784, (S)-(6-(2-methoxyethyl)pyrazolo[1,5-a]pyridin-3-yl)(4-(4-(trifluoromethyl)pyrazolo[1,5-a]pyridin-2-yl)-1,4,6,7-tetrahydro-5H-imidazo[4,5-c]pyridin-5-yl)methanone], the concentration at half-maximal activity (AC50) was 500 to 1000 nM.
